Assay results as given in patent publication US4444691A, “11-Cyano-prostaglandins of the F-series” (American Cyanamid Company, priority 1982, dated 1984).
Like-named read-outs stand apart in the source and are kept apart here.

Tests used:
[1] = system: bronchospasms elicited by 5-hydroxytryptamine; test: Bronchodilator activity (Konzett assay), 5-hydroxytryptamine bronchospasm; type: in vivo, guinea pigs; conditions: Cavia porcellus; spasmogenic agent 5-hydroxytryptamine; three logarithmic cumulative intravenous doses
Protocol: (§1) Bronchodilator activity was determined in guinea pigs against bronchospasms elicited by intravenous injections of 5-hydroxytryptamine, histamine or acetylchlorine by the Konzett procedure. (See J. Lulling, P. Licvens, F. El Sayed and J. Prignot, Arzneinittel-Forschung, 18, 995 (1968).]
(§2) In the Table which follows bronchodilator activity for representative compounds of this invention against one or more of the three spasmogenic agents is expressed as an ED50 determined from the results obtained with three logarithmic cumulative intravenous doses.

[2] = system: bronchospasms elicited by histamine; test: Bronchodilator activity (Konzett assay), histamine bronchospasm; type: in vivo, guinea pigs; conditions: Cavia porcellus, iv, spasmogenic agent histamine; three logarithmic cumulative intravenous doses
Protocol: as §1, §2

[3] = system: bronchospasms elicited by acetylcholine; test: Bronchodilator activity (Konzett assay), acetylcholine bronchospasm; type: in vivo, guinea pigs; conditions: Cavia porcellus; spasmogenic agent acetylcholine; three logarithmic cumulative intravenous doses
Protocol: as §1, §2

gastric acid secretion = test: Gastric acid secretion inhibition, modified Shay rat procedure; type: in vivo, rats (male, CFE strain); conditions: Rattus norvegicus, read-out: Percent inhibition of gastric acid secretion
Text: The novel compounds of the present invention are effective inhibitors of gastric acid secretion and of ulcer development in experimental animals, and thus are potentially valuable as agents for the control of gastric secretion and of gastric erosion and as anti-ulcer agents. Gastric acid secretion inhibitory action is usually measured by the "Shay rat" procedure ^(1,2) with some modifications as follows.
(1) Shay et al., Gastroenterology, 5, 43 (1945).
The rats (male, CFE strain) were starved for 48 hours (water was given ad libitum) to permit evacuation of stomach contents. On the morning of the experiment, under ether anesthesia, the abdominal region was shaved and a midline incision (1-11/2" ) was made with a scapel. With the help of a closed curved hemostat the duodenum was picked up. Upon getting the duodenum into view, fingers were used to pull the stomach through the opening, the stomach was then gently manipulated with fingers to rid stomach of air and residual matter which were pushed through the pylorus. Two-5 inch sutures were drawn under the pyloric-duodenal puncture. A ligature at the juncture, was formed with one of the threads. The second ligature was also formed but not tightened.
The test compound or the vehicle, usually 1 ml./100 g. body weight, were injected into the duodenum as close as possible to the first ligature. After injection the second ligature was tightened below the injection site to minimize leakage. The stomach was placed back through the opening into the abdominal cavity, the area of incision was washed with saline and the incision was closed with autoclips. (Occasionally, instead of an intraduodenal injection, animals were dosed by the oral or subcutaneous route. In the latter case, dosing was done thirty to sixty minutes before the operation.)
The abdominal cavity was exposed by cutting with scissors and the esophagus close to the stomach was clamped off with a hemostat, the stomach was removed by cutting above the hemostat (the esophagus was cut) and between the two sutures. Extraneous tissue was removed, the stomach washed with saline and blotted on gauze. A slit was carefully made in the stomach which was held over a funnel and the contents were collected in a centrifuge tube. The stomach was further cut along the outside edge and turned inside out. Two ml. H2 O were used to wash the stomach contents into the respective centrifuge tube. The combined stomach contents and wash were then centrifuged out for 10 minutes in the International Size 2 Centrifuge (setting at 30). The supernatant was collected, volume measured and recorded, 2 drops of a phenylphthalein indicator (1% in 95% ethanol) were added and the solution was titrated with 0.02 N NaOH (or with 0.04 N NaOH when large volumes of stomach contents were encountered) to pH 8.4 (because of usual coloring of the stomach contents, phenolphthalein was only used to permit visual indication that the end point was near) and the amount of acid present was calculated.
Compounds inducing inhibition of gastric acid secretion of 20% or more were considered active. In a representative operation, and merely by way of illustration, the results obtained with this assay with typical compounds of the present invention are given in Table II below.

[4] = system: basal gastric acid secretion; test: Inhibition of total acid output (basal gastric acid secretion) in the acute gastric fistula rat; type: in vivo, female Sprague-Dawley rats; conditions: Rattus norvegicus, intraduodenal
Protocol: Inhibition of basal gastric acid secretion can be determined by the following procedure.
Female Sprague-Dawley rats weighing 140-160 grams are fasted in individual cages for 18-24 hours. The rats are then lightly anesthetized with ether and their front teeth extracted to avoid destruction of the plastic cannula. A midline incision is then made and the stomach and duodenum exposed. A flanged polyvinyl tube is inserted into the fundic portion of the stomach and secured with a purse string suture line using 4-O Mersilene. The rat is then dosed by injection of the compound into the duodenum (1.0 ml. per 100 gram body weight). After dosing, the abdominal wall and skin are closed using metal wound clips. The rat is replaced in a cage containing a longitudinal slit to allow the polyvinyl tube to hang freely. An 8 ml. plastic collecting tube is attached to the flanged cannula and hangs freely below the cage. The first 30 minute sample is discarded designating this time as zero. The collecting tube is attached again and samples removed at the end of 60 and 120 minutes. These samples are referred to as "A" and "B" in the table. The hourly samples are then transferred to a 15 ml. centrifuge and centrifuged for 5-10 minutes. Total and sediment volume are then recorded with the supernatent volume being used as volume of secretion. A 1 ml. or less aliquot is then removed and placed in a 50 ml. beaker containing 10 ml. of distilled water. This sample is then titrated using 0.01 N NaPH to pH 7.0 using a Beckman zeromatic pH meter. Volume, titratable acidity (mew/L) and total acid output (ueq/hour) are recorded. Percent inhibition is determined by comparison with the appropriate control. Groups of three rats were used for preliminary testing, and groups of six rats were used for dose-response evaluations. All compounds are administered in a vehicle consisting of 0.5% methocel, 0.4% tween 80, and saline at a constant volume of 1 ml./100 gram rat. Samples are dispersed by sonification. Percent inhibition is calculated on basis of concurrent vehicle control.
In Table III which follows is given the effect on total acid output after 60 minutes and 120 minutes of intraduodenal dose, of representative compounds of this invention.

ligated intestine = system: ligated intestine; parameters: species or system female Sprague-Dawley rats; conditions: rat, in vivo
Protocol: It is therefore unexpected and novel that in general, the compounds of this invention are not diarrheagenic at dose levels at which they are effective gastric acid secretion inhibitors. One measure of diarrheagenic potential is the ileal ligated rat assay, a description of which follows directly.
Female Sprague-Dawley rats (Charles River Laboratories) weighing less than 100 grams are fasted in individual cages for at least 18 hours. They are then anesthetized with ether and a midline incision made. The duodenum is exposed and the test drug or control injected intraduodenally. The ilcocecal junction is then exposed and the terminal ileum is ligated using 3-0 silk thread just proximal to the junction. The incision is then closed using wound clips. Rats are placed back in individual cages without food or water for four hours. After this time the rats were sacrificed, the stomach and small intestine carefully removed, and cleaned of adherent mesentery. The removed portion of gut is then weighed to the nearest 0.1 gram. Compounds inducing diarrhea such as prostaglandins, cholera toxin, etc. produce an increase in weight of the ligated intestine. This increase from control is noted in Table IV, as change in weight in grams after standardizing weights of gut to grams/100 gram rat. An increase in intestinal weight of about 1.0 g. is considered indicative of diarrheagenic potential.
When measured by this assay at effective gastric acid secretion inhibiting doses, as determined by the acute rat fistula assay representative novel compounds of Table IV are non-diarrheagenic.

[5] = system: ulcerogenic effects induced by indomethacin (stomach ulcers); type: in vivo, rat; conditions: indomethacin 20 mg/kg s.c.
Protocol: It is further to be noted that although prostaglandins in general are not effective when administered by oral route, the compounds of this invention are effective orally. The assay to determine the protective effect of these compounds is carried out in the following manner.
Rats were starved for 48 hours (water was given ad libitum). Indomethacin (20 mg./kg. of body weight) was administered by the subcutaneous route and one-half the dose of the test compound was administered by gavage at the same time. After three hours, the second half of the test compound was administered, also by gavage. Five hours after the administration of indomethacin the animals were decapitated and the stomachs removed. The stomachs were washed with distilled water, blotted on gauze, cut along the larger curvature, and the contents rinsed with distilled water. The stomachs were spread out, pinned on a cork and visualized under magnifying glass for ulcers. The criteria for scoring of ulcers was as previously reported. [Abdel-Galil et al. Brit. J. Pharmac. Chemotherapy 33:1-14 (1968)]. […]
1 Petechial hemorrhage of pin point ulcers
3 Many ulcers, a few large
4 Many ulcers, mainly large
Control animals treated with indomethacin but not test compound consistently give scores of about 2.5-3.5. Control animals treated with neither indomethacin not test compound give scores of about 0.5-0.8. Compounds diminishing the control ulcer score by 0.5 unit or more are considered to be active.

[6] = 1 h, 60 min, read-out: % Inhibition of total acid output, after 60 minutes (A)
[7] = 2 h, 120 min, read-out: % Inhibition of total acid output, after 120 minutes (B)
[8] = total oral dose 12.5 mg/kg, score 0-4, controls 2.5-3.0

`CCCCC[C@H](O)/C=C/[C@H]1[C@H](CC(=O)O)CC(=O)[C@@H]1C/C=C\CCCC(=O)O` [11-deoxy-11α-carboxymethylprostaglandin E2] was tested, and the ED50 [1] was 5.5 mg/kg, the ED50 [2] was 3.4 mg/kg and the ED50 [3] was 4.6 mg/kg.

With `CCCCC[C@H](O)/C=C/[C@H]1[C@@H](CO)CC(=O)[C@@H]1C/C=C\CCCC(=O)O` [11-deoxy-11β-hydroxymethyl-prostaglandin E2] the ED50 [1] was 0.3 mg/kg, the inhibition in vivo at 8 mg/kg (gastric acid secretion; sc, subcutaneous, 8 mg/kg) was 44% and the ED50 [2] was 0.065 mg/kg. It also gave an ED50 [3] of 0.25 mg/kg.

With `CCCCC[C@H](O)/C=C/[C@H]1C(SC(C)=O)CC(=O)[C@@H]1C/C=C\CCCC(=O)O` (stereo partly drawn) [l-11-acetylthio-11-deoxyprostaglandin-E2, 11-deoxy-11α/β-acetylthioprostaglandin E2] the inhibition in vivo at 10 mg/kg [4, 6] was 66%, the inhibition in vivo at 10 mg/kg [4, 7] was 68% and the “Increase in weight of intestine” value (ligated intestine; 10 mg/kg) was -0.02 g. For the same molecule, the “Increase in weight of intestine” value (ligated intestine; 20 mg/kg) was -0.1 g.

In the case of `CCCCC[C@H](O)/C=C/[C@H]1[C@H](CO)C[C@@H](O)[C@@H]1C/C=C\CCCC(=O)O` [l-11-dexoy-11α-hydroxymethylprostaglandin-F2 β], the inhibition in vivo at 5 mg/kg [4, 6] is reported as 49%, the inhibition in vivo at 5 mg/kg [4, 7] is reported as 49% and the “Increase in weight of intestine” value (ligated intestine; 10 mg/kg) is reported as “+0.6 g”.

`CCCCC[C@H](O)/C=C/[C@H]1[C@H](C#N)CC(=O)[C@@H]1C/C=C\CCCC(=O)O` [l-11α-cyano-11-deoxyprostaglandin-E2, l-11-deoxy-11α-cyanoprostaglandin-E2] gave an ED50 [1] of 0.0003 mg/kg, an ED50 [2] of 0.0014 mg/kg and an inhibition in vivo at 10 mg/kg [4, 6] of 49%. For the same molecule, the inhibition in vivo at 10 mg/kg [4, 7] was 18% and the ED50 [3] was 0.0053 mg/kg.

With `CCCCC[C@H](O)/C=C/[C@H]1[C@H](SCC)CC(=O)[C@@H]1C/C=C\CCCC(=O)O` [l-11α-ethylthio-11-deoxyprostaglandin-E2, 11-deoxy-11α-ethylthioprostaglandin E2] the “Increase in weight of intestine” value (ligated intestine; 10 mg/kg) was -0.2 g.

With `CCCCC[C@@H](/C=C/[C@H]1[C@H](CO)C[C@@H](O)[C@@H]1C/C=C\CCCC(=O)OC)OC(C)=O` [l-11α-hydroxymethyl-15-O--acetyl-11-deoxyprostaglandin-F2 β methyl ester] the inhibition in vivo at 5 mg/kg [4, 6] was 47%, the inhibition in vivo at 5 mg/kg [4, 7] was 33% and the “Increase in weight of intestine” value (ligated intestine; 10 mg/kg) was “+0.15 g”.

In the case of `CCCCC[C@H](O)/C=C/[C@H]1[C@H](C)CC(=O)[C@@H]1C/C=C\CCCC(=O)O` [l-11α-methyl-11-deoxyprostaglandin-E2, 11-deoxy-11α-methyl-prostaglandin E2], the ED50 [1] is reported as 0.0022 mg/kg, the inhibition in vivo at 50 mg/kg (gastric acid secretion; intraduodenal) is reported as 63% and the “Ulcer score, treated animals” value ([5]; total oral dose 6.25 mg/kg, score 0 (normal) to 4, controls 3.0) is reported as 2.5. The “Ulcer score, treated animals” value [5, 8] was 2.0, the “Ulcer score, treated animals” value ([5]; total oral dose 25 mg/kg, score 0-4, controls 2.7-3.9) was 1.7 and the ED50 [2] was 0.05 mg/kg. It also gave an ED50 [3] of 1.19 mg/kg.

With `C=C[C@@H]1C[C@H](O)[C@H](C/C=C\CCCC(=O)O)[C@H]1/C=C/[C@@H](O)CCCCC` [l-11α-vinyl-11-deoxyprostaglandin-F2 α, 11-deoxy-11α-vinylprostaglandin F2α] the inhibition in vivo at 2.5 mg/kg [4, 6] was 15%, the inhibition in vivo at 5 mg/kg [4, 6] was 53% and the inhibition in vivo at 2.5 mg/kg [4, 7] was 37%. For the same molecule, the inhibition in vivo at 5 mg/kg [4, 7] was 67% and the “Increase in weight of intestine” value (ligated intestine; 10 mg/kg) was -0.36 g.

For `CCCCC[C@H](O)/C=C/[C@H]1C(C#N)CC(=O)[C@@H]1C/C=C\CCCC(=O)O` (stereo partly drawn) [l-11α/β-cyano-11-deoxyprostaglandin-E2, 11α/β-cyano-11-deoxy-prostaglandin E2], the ED50 [1] was 0.036 mg/kg, the inhibition in vivo at 25 mg/kg (gastric acid secretion; intraduodenal, 25 mg/kg) was 31% and the inhibition in vivo at 50 mg/kg (gastric acid secretion; intraduodenal) was 79%. The “Ulcer score, treated animals” value [5, 8] was 1.2, the ED50 [2] was 0.0054 mg/kg and the ED50 [3] was 0.091 mg/kg.
